Literature values in US20150174190A1, “Formulation Against General, Physical, And/Or Mental Fatigue” (priority 2013, published 2015).

Test system: patients that suffered from fatigue

CC(C)[C@H](N)C(=O)OCC(CO)OCn1cnc2c(=O)nc(N)[nH]c21 (stereo partly shown) [Valganciclovir]
Effect on physical and cognitive performance: improved physical and cognitive performance
